In patent publication US12139488B2, “Pyrido[3,2-d]pyrimidine compounds uses thereof for treating a proliferative disease” (Universite de Montreal, priority 2021, dated 2024):
pIC50: −log10 of the molar value.

Test system: pERK in HCT-116 cells (KRAS G13D)
Assay: Phospho-ERK inhibition (AlphaLISA SureFire Ultra p-ERK 1/2), HCT116
Type: cell-based, human
Settings: HCT116 cells; class symbol
Description: All cancer cell lines (A375, A101D, A2058, RKO, HT29 SK-MEL 30, IPC298, HepG2, HCT-116, Lovo, SWV620, SW480, NCI-H358, NCI-H2122, Calu-6, NCIH2087, NCIH1755, NCIH1666 and Mewo) were obtained from ATCC and cultured in RPMI-1640 medium (Gibco) supplemented with 5% heat inactivated fetal bovine serum (FBS, Wisent) at 37° C. under 5% CO2. Cells were maintained in T175 flasks (Greiner). They were passaged by removing the culture medium, washing once in 10 mL of room temperature Phosphate Buffered Saline (PBS; Wisent) and incubating at 37° C. with 2 mL of 0.05% Trypsin (Thermo-Fisher). Trypsin was then inactivated by adding complete growth medium and the cells were then replated in a T175 culture dish at the appropriate dilution. All cell lines were routinely tested for mycoplasma contamination. Tissue type and mutational status of each cell line can be found in Table B.
AlphaLISA® SureFire® Ultra™ p-ERK 1/2 (Thr202/Tyr204) analysis was conducted on cells plated in 100 μL of complete RPMI-1640 growth medium in 96-well flat-bottomed transparent dishes (Costar) at a density indicated in Table C. Cells were maintained overnight at 37° C. under 5% CO2 before treatment with compounds' dilution series for one hour. The cell density in cells/cm^2 corresponds to cell number divided by the area of one well of a 96-well plate ([…]).
In a dilution series 100 μL/well of test substance dilution prepared in complete RPMI-1640 growth media was added to the cells. The dilution series is selected so that ten concentrations cover a range from 10 μM to 0.33 nM. If necessary the initial concentration of 10 μM is increased to 100 μM or lowered to 1 μM (as in the case of A375 and H1666 cells, which are generally more sensitive to the compounds) and further dilution is carried out accordingly. The final concentration of DMSO in the assay is set at 0.5%.
After treatment, media was removed and cells were lysed in 50 μL of 1× AlphaScreen Ultra Lysis Buffer (Perkin Elmer). The AlphaLISA® SureFire® Ultra™ p-ERK 1/2 (Thr202/Tyr2O4) (PerkinElmer) reactions were performed with 5 μL of cell lysate according to the manufacturer's specifications in 384-well proxyplates (Perkin Elmer) followed by overnight incubation of the reactions at room temperature in a humidified chamber. After completion of the reactions, the signals were recorded on an EnVision plate reader (Perkin Elmer) using built in AlphaLISA® settings.
The effect of each compound dilution on the pERK signal was expressed in % inhibition and calculated as follows. An internal 100% inhibition control ([…] trametinib, cat #HY-10999; MedChem Express; CAS #871700-17-3) was included in each plate and used as a measure of pERK background. First, the value obtained for trametinib was subtracted from each data point. The average of DMSO (vehicle) controls (set as 0% inhibition) was established and used to calculate % inhibition: % inhibition=100*(1-((pERK signalcompound)/(pERK signalDMSO)))
The ability of each compound to inhibit pERK signal was expressed as an IC50 value obtained by plotting the inhibition values for each data point of a dilution series and fitting the obtained curves using a log(agonist) versus response-variable slope (four parameters) function using GraphPadPrism (V7.0) or Dotmatics Screening Ultra platform.
When present, paradoxical pERK induction is inferred from the negative % inhibition values observed in the pERK IC50 curves of a compound.

## CC(=O)N1CCCc2nn(-c3ccc4ncnc(Nc5c(F)ccc(NS(=O)(=O)c6cccc(F)c6C)c5F)c4n3)cc21 [Example 357]
  pIC50: 6.00 to 6.30

## Cc1c(F)cccc1S(=O)(=O)Nc1ccc(F)c(Nc2ncnc3ccc(-n4cnc5c(CC#N)cccc54)nc23)c1F [Example 361]
  pIC50: > 6.30

## Cc1c(F)cccc1S(=O)(=O)Nc1ccc(F)c(Nc2ncnc3ccc(-n4cc5c(n4)CCCN5CCN)nc23)c1F [Example 362]
  pIC50: 5.00 to 6.00

## Cc1cc(N)ccc1S(=O)(=O)Nc1ccc(F)c(Nc2ncnc3ccc(-n4cnc5c(N)cccc54)nc23)c1F [Example 369]
  pIC50: 6.00 to 6.30

## Cc1c(F)cccc1S(=O)(=O)Nc1ccc(F)c(Nc2ncnc3ccc(-n4cnc5c(N(CCCO)CCCO)cccc54)nc23)c1F [Example 375]
  pIC50: > 6.30

## COCCN(CCOC)c1cccc2c1ncn2-c1ccc2ncnc(Nc3c(F)ccc(NS(=O)(=O)c4cccc(F)c4C)c3F)c2n1 [Example 376]
  pIC50: 6.00 to 6.30

## CC(=O)NCCN1CCCc2nn(-c3ccc4ncnc(Nc5c(F)ccc(NS(=O)(=O)c6cccc(F)c6C)c5F)c4n3)cc21 [Example 383]
  pIC50: 5.00 to 6.00

## COCCCN(CCCOC)c1cccc2c1ncn2-c1ccc2ncnc(Nc3c(F)ccc(NS(=O)(=O)c4cccc(F)c4C)c3F)c2n1 [Example 384]
  pIC50: 5.00 to 6.00

## Cc1c(F)cccc1S(=O)(=O)Nc1ccc(F)c(Nc2ncnc3ccc(-n4cc5c(n4)CCCN5CCCO)nc23)c1F [Example 391]
  pIC50: 5.00 to 6.00

## Cc1c(F)cccc1S(=O)(=O)Nc1ccc(F)c(Nc2ncnc3ccc(-n4cc5c(n4)CCCN5C(=O)CN)nc23)c1F [Example 392]
  pIC50: 5.00 to 6.00

## CC(=O)N1CCc2cnn(-c3ccc4ncnc(Nc5c(F)ccc(NS(=O)(=O)c6cccc(F)c6C)c5F)c4n3)c2C1 [Example 393]
  pIC50: 6.00 to 6.30

## Cc1c(F)cccc1S(=O)(=O)Nc1ccc(F)c(Nc2ncnc3ccc(-n4ncc5c4CN(CCN)CC5)nc23)c1F [Example 415]
  pIC50: 6.00 to 6.30

## Cc1c(F)cccc1S(=O)(=O)Nc1ccc(F)c(Nc2ncnc3ccc(-n4cnc5c(-c6cnccc6N)cccc54)nc23)c1F [Example 420]
  pIC50: 5.00 to 6.00

## Cc1c(F)cccc1S(=O)(=O)Nc1ccc(F)c(Nc2ncnc3ccc(-n4cnc5c(-c6cccnc6N)cccc54)nc23)c1F [Example 424]
  pIC50: > 6.30

## Cc1c(F)cccc1S(=O)(=O)Nc1ccc(F)c(Nc2ncnc3ccc(-n4ncc5c4CCCN5CCO)nc23)c1F [Example 425]
  pIC50: 6.00 to 6.30

## CN(C)CCNS(=O)(=O)c1cn(-c2ccc3ncnc(Nc4c(F)ccc(NS(=O)(=O)c5cccc(Cl)c5Cl)c4F)c3n2)c2ccc(F)cc12 [Example 443]
  pIC50: > 6.30

## CN(C)CCN(C)S(=O)(=O)c1cn(-c2ccc3ncnc(Nc4c(F)ccc(NS(=O)(=O)c5cccc(Cl)c5Cl)c4F)c3n2)c2ccc(F)cc12 [Example 444]
  pIC50: > 6.30

## CC(C)(CO)S(=O)(=O)c1cn(-c2ccc3ncnc(Nc4c(F)ccc(NS(=O)(=O)c5cccc(Cl)c5Cl)c4F)c3n2)c2ccccc12 [Example 447]
  pIC50: > 6.30

## CN(C)CC(C)(C)S(=O)(=O)c1cn(-c2ccc3ncnc(Nc4c(F)ccc(NS(=O)(=O)c5cccc(Cl)c5Cl)c4F)c3n2)c2ccccc12 [Example 456]
  pIC50: > 6.30

## CC(C)(CN1CCOCC1)S(=O)(=O)c1cn(-c2ccc3ncnc(Nc4c(F)ccc(NS(=O)(=O)c5cccc(Cl)c5Cl)c4F)c3n2)c2ccccc12 [Example 457]
  pIC50: > 6.30

## Cc1c(F)cccc1S(=O)(=O)Nc1ccc(F)c(Nc2ncnc3ccc(-n4ncc5c4CCCN5C)nc23)c1F [Example 460]
  pIC50: 5.00 to 6.00

## CNCC(C)(C)S(=O)(=O)c1cn(-c2ccc3ncnc(Nc4c(F)ccc(NS(=O)(=O)c5cccc(Cl)c5Cl)c4F)c3n2)c2ccccc12 [Example 461]
  pIC50: > 6.30

## O=S(=O)(Nc1ccc(F)c(Nc2ncnc3ccc(-n4cc(S(=O)(=O)C5CCNCC5)c5ccccc54)nc23)c1F)c1cccc(Cl)c1Cl [Example 465]
  pIC50: 6.00 to 6.30

## CN1CCC(S(=O)(=O)c2cn(-c3ccc4ncnc(Nc5c(F)ccc(NS(=O)(=O)c6cccc(Cl)c6Cl)c5F)c4n3)c3ccccc23)CC1 [Example 467]
  pIC50: > 6.30

## CC(C)N1CCC(S(=O)(=O)c2cn(-c3ccc4ncnc(Nc5c(F)ccc(NS(=O)(=O)c6cccc(Cl)c6Cl)c5F)c4n3)c3ccccc23)CC1 [Example 468]
  pIC50: > 6.30

## O=S(=O)(Nc1ccc(F)c(Nc2ncnc3ccc(-n4cc(S(=O)(=O)C5CCN(CC6CC6)CC5)c5ccccc54)nc23)c1F)c1cccc(Cl)c1Cl [Example 469]
  pIC50: > 6.30

## O=S(=O)(Nc1ccc(F)c(Nc2ncnc3ccc(-n4cc(S(=O)(=O)C5CCN(C6CCC6)CC5)c5ccccc54)nc23)c1F)c1cccc(Cl)c1Cl [Example 470]
  pIC50: > 6.30

## CP(C)(=O)c1cn(-c2ccc3ncnc(Nc4c(F)ccc(NS(=O)(=O)c5cccc(Cl)c5Cl)c4F)c3n2)c2ccccc12 [Example 472]
  pIC50: 5.00 to 6.00

## CN(C)CCCS(=O)(=O)c1cn(-c2ccc3ncnc(Nc4c(F)ccc(NS(=O)(=O)c5cccc(Cl)c5Cl)c4F)c3n2)c2ccccc12 [Example 484]
  pIC50: > 6.30

## O=S(=O)(Nc1ccc(F)c(Nc2ncnc3ccc(-n4cc(CC5CCN(CC(F)F)CS5(=O)=O)c5ccccc54)nc23)c1F)c1cccc(Cl)c1Cl (centres unmarked) [Example 488]
  pIC50: > 6.30

## CC(C)(CC(F)F)S(=O)(=O)c1cn(-c2ccc3ncnc(Nc4c(F)ccc(NS(=O)(=O)c5cccc(Cl)c5Cl)c4F)c3n2)c2ccccc12 [Example 499]
  pIC50: > 6.30

## O=C(c1cn(-c2ccc3ncnc(Nc4c(F)ccc(NS(=O)(=O)c5cccc(Cl)c5Cl)c4F)c3n2)c2ccccc12)C1CCOC1 (centres unmarked) [Example 500]
  pIC50: 5.00 to 6.00

## O=[N+]([O-])c1cn(-c2ccc3ncnc(Nc4c(F)ccc(NS(=O)(=O)c5cccc(Cl)c5Cl)c4F)c3n2)c2ccccc12 [Example 506]
  pIC50: 5.00 to 6.00

## O=C1CCCN1c1cn(-c2ccc3ncnc(Nc4c(F)ccc(NS(=O)(=O)c5cccc(Cl)c5Cl)c4F)c3n2)c2ccccc12 [Example 511]
  pIC50: > 6.30

## O=S(=O)(Nc1ccc(F)c(Nc2ncnc3ccc(-n4cnc5c(N6CC[C@@H](O)C6)nccc54)nc23)c1F)c1cccc(Cl)c1Cl [Example 512]
  pIC50: 5.00 to 6.00

## CCOc1nccc2c1ncn2-c1ccc2ncnc(Nc3c(F)ccc(NS(=O)(=O)c4cccc(Cl)c4Cl)c3F)c2n1 [Example 513]
  pIC50: 6.00 to 6.30

## O=S(=O)(Nc1ccc(F)c(Nc2ncnc3ccc(-n4cc(N5CCCCS5(=O)=O)c5ccccc54)nc23)c1F)c1cccc(Cl)c1Cl [Example 514]
  pIC50: > 6.30

## CC(C)(C#N)c1cccc2c1ncn2-c1ccc2ncnc(Nc3c(F)ccc(NS(=O)(=O)c4cccc(Cl)c4Cl)c3F)c2n1 [Example 520]
  pIC50: > 6.30

## CS(=O)(=O)c1cccc2c1ncn2-c1ccc2ncnc(Nc3c(F)ccc(NS(=O)(=O)c4cccc(Cl)c4Cl)c3F)c2n1 [Example 521]
  pIC50: 5.00 to 6.00

## COCCOc1nccc2c1ncn2-c1ccc2ncnc(Nc3c(F)ccc(NS(=O)(=O)c4cccc(Cl)c4Cl)c3F)c2n1 [Example 522]
  pIC50: 6.00 to 6.30

## CCOc1cccc2c1ncn2-c1ccc2ncnc(Nc3c(F)ccc(NS(=O)(=O)c4cccc(Cl)c4Cl)c3F)c2n1 [Example 525]
  pIC50: 6.00 to 6.30

## Cc1c(F)cccc1S(=O)(=O)Nc1ccc(F)c(Nc2ncnc3ccc(-n4ncc5c4CN(CC(N)=O)CC5)nc23)c1F [Example 531]
  pIC50: 5.00 to 6.00

## O=C1CCCCN1c1cn(-c2ccc3ncnc(Nc4c(F)ccc(NS(=O)(=O)c5cccc(Cl)c5Cl)c4F)c3n2)c2ccccc12 [Example 532]
  pIC50: 5.00 to 6.00

## O=S(=O)(Nc1ccc(F)c(Nc2ncnc3ccc(-n4cc(-c5ccccc5)nn4)nc23)c1F)c1cccc(Cl)c1Cl [Example 534]
  pIC50: > 6.30
